Results on one substance are retold here after PMC6173183 (International Journal of Nanomedicine, 2018).

The data set relates to in vitro BBB model (HBMEC). Briefly: BBB penetration in vitro: transport ratio across HBMEC transwell model. In kind it is in vitro ADME, human. Conditions: 240 minutes, FITC 10 μmol⋅L^−1.

Regarding fluorescein isothiocyanate [FITC], the BBB transportation ratio was determined as 4.53%.
